System: pooled human hepatocytes
Assay: Incubation with pooled human hepatocytes, metabolite identification by LC-QTOF-MS
Format: in vitro ADME
Conditions: 5 µM, HHeps, up to 3 h
Method: Incubations of the SCRAs with HHeps and subsequent metabolite identification were carried out as previously described in a published procedure, with slight modifications (Åstrand et al. [2019]; Stalberga et al. [2022]). To summarise, 5 µM of each SCRA was incubated with HHeps (100,000 cells) at 37 °C, 5% CO2 in a total volume of 100 μL of Williams E medium supplemented with L-glutamine and HEPES. Incubations were carried out in duplicate and quenched by the addition of 100 µL ice-cold acetonitrile at 0, 0.5, 1 and 3 h, after which the incubates were centrifuged at 1,100 × g for 15 min at 4 °C. The resulting supernatant was analysed by LC–QTOF-MS. On each day, negative controls (HHeps without drug) and degradation controls (drug without HHeps) were also incubated for 3 h.
Chromatographic separation was achieved using an Agilent 1290 Infinity ultra-high performance liquid chromatography (UHPLC) system (Agilent Technologies, Kista, Sweden); 4 µL supernatant was injected onto an Acquity HSS T3 column (150 × 2.1 mm, 1.8 μm) fitted with an Acquity VanGuard precolumn (Waters, Sollentuna, Sweden). Gradient elution was employed using 0.1% formic acid in water (A) and 0.1% formic acid in acetonitrile (B) mobile phases: 1% B (0–0.6 min); 1–20% B (0.6–0.7 min); 20–85% B (0.7–13 min); 85–95% B (13–15 min); 95% B (15–18 min); 95–1% B (18–18.1 min); 1% B (18.1–19 min), with a flow rate of 0.5 mL/min and column temperature of 60 °C. The UHPLC system was coupled to an Agilent 6550 iFunnel QTOF mass spectrometer (Agilent Technologies, Kista, Sweden) with a Dual Agilent Jet Stream electrospray ionisation (ESI) source. […]
To identify structure–metabolism relationships, the total proportion (%) that each type of biotransformation contributed to the summed abundance of metabolites (as measured by peak area) across the 0.5, 1 and 3 h incubations was determined. […]

Structure (SMILES)	abundances of metabolites relative to the parent compound	most abundant metabolite
C=CCCCN1C(=O)/C(=N\NC(=O)c2ccccc2)c2ccccc21 [BZO-4en-POXIZID]	small relative to the parent compound	–
C=CCCCn1cc(C(=O)NC(C(=O)OC)C(C)(C)C)c2ccccc21 (stereo not drawn) [MDMB-4en-PICA]	–	ester hydrolysis metabolite
C=CCCCn1nc(C(=O)NC(C(=O)OC)C(C)(C)C)c2ccccc21 (stereo not drawn) [MDMB-4en-PINACA, methyl 3,3-dimethyl-2-{[1-(pent-4-en-1-yl)-1H-indazole-3-carbonyl]amino}butanoate]	–	ester hydrolysis metabolite

Reference: publication PMC12367891, “Structure–metabolism relationships of 4-pentenyl synthetic cannabinoid receptor agonists using in vitro human hepatocyte incubations and high-resolution mass spectrometry” (Archives of Toxicology, 2025)
